Measured values published in publication PMC3772632 (Nature structural & molecular biology, 2013).

Experiments:
[1] = test system: DnaK Trp102 (NBD-SBD allosteric coupling); settings: cited from earlier work
[2] = test system: SBD; settings: cited from earlier work
[3] = test system: dnak deletion strain BB205; assay: Growth tests in dnak deletion strain BB205 at 37°C; format: cell-based, E. coli; settings: serial dilutions spotted on LB plates, 20 μM IPTG, one overnight
[4] = test system: DnaK ATPase; settings: ref [16],[28]; cited from earlier work

## Nc1ncnc2c1ncn2[C@@H]1O[C@H](COP(=O)(O)OP(=O)(O)OP(=O)(O)O)[C@@H](O)[C@H]1O [ATP]
[1]; full-length DnaK, relative to apo and ADP-bound forms, ref [16]
  ATP-induced change of tryptophan fluorescence: blue-shift and fluorescence quenching
[2]; Hsp70 (mainly DnaK)
  Binding and release rates of substrates upon ATP binding: greatly accelerated, more for release than binding
[2]; ref [19],[20]
  Reduction of affinity of SBD for its substrates upon ATP binding: two to three

## D100L: DnaK mutated individually at Asp100
[3]
  in vivo DnaK function / activity in growth tests: moderate growth phenotype

## G461P
[3]
  in vivo DnaK function / activity in growth tests: compromised in vivo DnaK function modestly

## G468P
[3]
  in vivo DnaK function / activity in growth tests: compromised in vivo DnaK function modestly

## T199A: well-characterized mutation that abolishes ATPase activity but maintains allosteric coupling
[1]; ref [16],[28]
  Allosteric coupling of mutant: maintains allosteric coupling
[4]
  ATPase activity of mutant: abolishes ATPase activity
